We go through one compound from patent publication US20250000855A1, “USE OF APOMORPHINE AS THERAPEUTIC AGENT FOR NECROPTOSIS-RELATED DISEASES” (INDUSTRY-ACADEMIC COOPERATION FOUNDATION, YONSEI UNIVERSITY, priority 2021, published 2025).

Format in all cases: cell-based, human
The test system of test [1] is MLKL oligomerization. The experiment in a line: MLKL oligomerization (tetramer and octamer bands) by non-reducing or reducing SDS-PAGE. The following applies: cytoplasmic and membrane fractions, necroptosis induced with TBZ, FIG. 2 / FIG. 6A. How it is done: Cells were pretreated with Z-VAD (invivoGen, tlrl-vad) and a compound for 1 hour, and necroptosis was induced with TNF-α (ATGen, TNF0501) and BV6 (Biovision, B1332-5) for the indicated time. The prepared cells were appropriately treated according to analysis (Z-VAD: carbobenzoxy-valyl-alanyl-aspartyl, TNF-α: tumor necrosis factor-α, BV6: 4,4′-(1,6-hexanediyl)bis[N-methyl-L-alanyl-(2S)-2-cyclohexylglycyl-L-prolyl-β-phenyl-L-phenylalaninamide)
Cells were treated with a drug candidate and then collected using centrifugation at 4° C. and 1,500×g for 5 minutes. A supernatant was centrifuged again at 4° C. and 1,500×g for 5 minutes to remove remaining debris, concentrated at 4° C. and 14,000×g for 30 minutes using Amicon ultra-0.5 centrifugal filter unit 10K (Millipore, UFC501096), and stored. […] The extracted protein concentration was measured using a bicinchoninic acid (BCA) protein assay kit (Thermo Fisher Scientific, 23225). […]
To test whether the tetramer and octamer formation of p-MLKL for pore formation in the cell membrane is inhibited by apomorphine (APO), cells that had been treated with each molecule for the indicated time were separated into cytoplasmic and membrane fractions and analyzed through non-reducing or reducing sodium dodecyl sulfate-polyacrylamide gel electrophoresis (SDS-PAGE), and then investigated with specific antibodies (Experimental Method 1-6). […]

The subject of test [2] is MLKL translocation in transfected THP-1 cells. The experiment in a line: Flag-MLKL translocation to cell membrane, immunofluorescent staining, confocal microscopy. Conditions: transfected THP-1 cells stimulated with compound and TBZ, FIG. 3. On the procedure:
A human monocyte cell line THP-1 and a human colon cancer cell line HT-29 were maintained in a 10% FBS-Roswell Park Memorial Institute (RPMI) 1640 medium supplemented with 2 mM L-glutamine, 100 U/ml penicillin, and 100 μg/ml streptomycin at 37° C. under a 5% CO2 condition. The THP-1 cells were differentiated into macrophages in an RPMI 1640 medium containing 500 nM Phorbol 12-myristate 13-acetate (PMA) for 3 hours. Human mixed lineage kinase domain-like protein (MLKL)-flag plasmid (Sino Biological, HG12810-CF) transfection was performed using the electroporation system (Invitrogen) of MicroPorator-mini (Digital Bio).
Cells were seeded on cell culture-treated glass chamber slides. The cells were pretreated with Z-VAD, BV6, and the indicated compound for 1 hour, and then treated with TNF-α and BV6 overnight. Subsequently, the cells were washed with phosphate-buffered saline (PBS) and fixed in 4% paraformaldehyde for 10 minutes. Before incubation for 10 minutes in 0.25% Triton X-100 in PBS, the cells were washed three more times with PBS. The cells were blocked with 5% bovine serum albumin (BSA) in PBS for 30 minutes and stained using an anti-Flag (Sigma, F7425-2MG) antibody. The nuclei were stained with DAPI (Invitrogen, 00-4959-52). Images were captured using a confocal microscope (Olympus, FV1000). […]

Test [3] relates to HMGB1 secretion. The experiment in a line: HMGB1 secretion into supernatant of TBZ-treated THP-1 cells, Western blotting. The following applies: APO 1, 5, 20, 80, or 320 μM for 8 hours, vs TBZ only-treated group, FIG. 4. How it is done:
Cells were treated with a drug candidate and then collected using centrifugation at 4° C. and 1,500×g for 5 minutes. A supernatant was centrifuged again at 4° C. and 1,500×g for 5 minutes to remove remaining debris, concentrated at 4° C. and 14,000×g for 30 minutes using Amicon ultra-0.5 centrifugal filter unit 10K (Millipore, UFC501096), and stored. The collected cells were lysed using 1× radioimmunoprecipitation assay (RIPA) buffer (GenDEPOT, R4100-010) containing a 1× protease inhibitor (GenDEPOT, P3100-001) and a phosphatase inhibitor (Thermo Fisher Scientific, 1862495). Subsequently, the cell lysate was centrifuged at 4° C. and 20,000×g for 30 minutes to remove debris. The extracted protein concentration was measured using a bicinchoninic acid (BCA) protein assay kit (Thermo Fisher Scientific, 23225). […]
To test whether secretion of HMGB1, a representative damage-associated molecular pattern, which is one of the characteristics of necroptosis, is inhibited by treating THP-1 cells with necroptosis induced by TBZ treatment with APO, after concentration-dependent treatment (1, 5, 20, 80, or 320 μM) with APO for 8 hours, all of the supernatant was concentrated, analyzed by SDS-PAGE, and investigated with an HMGB1 antibody (Experimental Method 1-6). […]

For `CN1CCc2cccc3c2[C@H]1Cc1ccc(O)c(O)c1-3` [APO, apomorphine], in test [1], the “intensities of the tetramer and octamer bands of MLKL” value is recorded as “decreased”. In addition, in test [2], the “distribution of Flag-MLKL signals” value is listed as “mostly distributed in the cytoplasm”. In test [3], the “amount of HMGB1 secreted into the supernatant” value is “decreased”.
